In patent EP1219619B1, “3-AMINO-2-[…] DERIVATIVES AS SUBSTANCE P ANTAGONISTS” (HISAMITSU PHARMACEUTICAL CO. INC., priority 1999, dated 2001):
Structures can show the parent of a compound that is named as a salt. Where two headings read alike, the source gives them in different places.

Columns and labels:
male ferrets = test: Antiemetic action against cisplatin-induced vomiting; format: in vivo; conditions: test compound 3 mg/kg intravenously; cisplatin 10 mg/kg intraperitoneal; observed over six hours; inhibition vs control group, number of episodes
Experimental: A test was conducted using male ferrets (around 1.2 kg body weight) as follows. Vomiting was induced by intraperitoneal administration of 10 mg/kg of cisplatin to the ferrets in a volume of 3 ml/kg. […] Each test compound was administered intravenously through radial skin at a dose of 3 mg/kg, and immediately after the administration, cisplatin was administered intraperitoneally. Then vomiting symptoms due to cisplatin was observed over six hours. […] The results are shown in Table 2 in terms of rates of inhibition to a control group using the number of times symptoms of vomiting occurred as an index.

[1] = target: T1, NK1 TACHYKININ RECEPTOR, HUMAN(CHO) (Homo sapiens, UniProt P25103); test: biochemical
T1 sequence (P25103 whole entry): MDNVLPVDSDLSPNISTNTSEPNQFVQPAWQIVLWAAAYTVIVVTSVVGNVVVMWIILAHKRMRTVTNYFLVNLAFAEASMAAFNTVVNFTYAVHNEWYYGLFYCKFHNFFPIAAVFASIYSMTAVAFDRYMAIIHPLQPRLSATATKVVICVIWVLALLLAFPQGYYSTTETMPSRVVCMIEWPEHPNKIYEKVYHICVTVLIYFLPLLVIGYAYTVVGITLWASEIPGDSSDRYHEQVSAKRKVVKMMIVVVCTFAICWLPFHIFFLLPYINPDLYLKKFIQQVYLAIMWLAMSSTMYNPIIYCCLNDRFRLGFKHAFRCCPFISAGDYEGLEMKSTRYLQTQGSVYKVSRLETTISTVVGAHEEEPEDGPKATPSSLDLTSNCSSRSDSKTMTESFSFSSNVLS
Experimental: (§1) As a sample, NK1 TACHYKININ RECEPTOR, HUMAN(CHO) diluted with incubation buffer (20 mM HEPES/NaOH buffer containing 1 mM MgCl2, 0.1% BSA: pH 7.4) was used (18.75 µg protein/ml). […] And 20 µl of CP-99,994 (final concentration of 1.5 µM) and 20 µl of distilled water were added to determine the amount of nonspecific binding and the amount of total binding, respectively. […] After one hour of incubation, the incubated mixture was filtered with suction and washed with a wash buffer (50 mM Tris/HCl buffer: pH 7.4) four times. The membrane fitted to each well of the MultiScreen was completely dried and punched inside each vial, and 5 ml of cocktail was added to give a sample to be measured.

[2] = target: T1, NK1 TACHYKININ RECEPTOR, HUMAN(CHO)
Experimental: as §1

Row | Molecule | Rate of Inhibition (%) Retching (male ferrets) | Rate of Inhibition (%) Vomiting (male ferrets) | Ki [1] | Ki [2]
1 | Cl.FC(F)(F)c1nc(-c2cc3c(c(CN[C@H]4CCCN[C@H]4c4ccccc4)c2)OCC3)no1 [Example 15, (2S, 3S)-3-[(5-(5-trifluoromethyl-1,2,4-oxadiazole-3-yl)-2,3-dihydrobenzofuran-7-yl)methyl]amino-2-phenylpiperidine hydrochloride] | 63.2% | 66.8% | – | –
2 | Cl.FC(F)(F)c1ccc(-c2cc3c(c(CN[C@H]4CCCN[C@H]4c4ccccc4)c2)OCC3)cc1 [Example 12, (2S,3S)-3-[(5-(4-trifluoromethylphenyl)-2,3-dihydrobenzofuran-7-yl)methyl]amino-2-phenylpiperidine hydrochloride] | 88.4% | 91.1% | 1.01 nM | –
3 | (2S,3S)-3-[(5-phenyl-2,3-dihydrobenzofuran-7-yl)methyl]amino-2-phenylpiperidine hydrochloride [Example 9] | 68.4% | 59.3% | – | 0.41 nM
4 | c1ccc([C@@H]2NCCC[C@@H]2NCc2cc(-c3ccsc3)cc3c2OCC3)cc1 [Example 7, (2S,3S)-3-[(5-(thiophene-3-yl)-2,3-dihydrobenzofuran-7-yl)methyl]amino-2-phenylpiperidine hydrochloride] | – | – | 0.35 nM | –
5 | Cl.c1ccc([C@@H]2NCCC[C@@H]2NCc2cc(-n3cnnn3)cc3c2OCC3)cc1 [Example 3, (2S,3S)-3-[(5-(tetrazole-1-yl)-2,3-dihydrobenzofuran-7-yl)methyl]amino-2-phenylpiperidine hydrochloride] | 59.1% | 61.0% | 0.18 nM | –
6 | c1ccc([C@@H]2NCCC[C@@H]2NCc2cc(-c3cccs3)cc3c2OCC3)cc1 [Example 6, (2S,3S)-3-[(5-(thiophene-2-yl)-2,3-dihydrobenzofuran-7-yl)methyl]amino-2-phenylpiperidine hydrochloride] | – | – | 0.35 nM | –
7 | Cl.c1ccc([C@@H]2NCCC[C@@H]2NCc2c3c(cc4c2OCC4)OCC3)cc1 [Example 16, (2S,3S)-3-[(2,3,6,7-tetrahydrobenzo[1,2-b:4,5-b']difuran-4-yl)methyl]amino-2-phenylpiperidine hydrochloride] | 58.7% | 62.6% | 1.53 nM | –
